Data from PubChem BioAssay AID330 (DTP/NCI, 2004).
“And” between values parts separate entries of the source, which are not always exact repeats. Equal values may be shown once. Inconclusive results and toxic doses are left out. Rule for the calls: active = survival T/C of 150% or more; inactive = T/C below 125% in these data.

System: P388 leukemia ip, CD2F1 mice, survival T/C
Experiment: NCI In Vivo Anticancer Drug Screen. Data for tumor model P388 Leukemia (intraperitoneal) in CD2F1 (CDF1) mice
Conditions: endpoint: median survival time, higher = longer survival
Method in brief: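 Mice carrying the transplanted tumor received test compound or vehicle. Survival was recorded in each group, and the value is the treated-group measurement divided by that of the vehicle-treated control group.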

[1] = dose: 60.0 mg/kg/injection, schedule: Q01DX005 (ip), vehicle: saline with Tween-80
[2] = dose: 120.0 mg/kg/injection, schedule: Q01DX005 (ip), vehicle: saline with Tween-80
[3] = dose: 240.0 mg/kg/injection, schedule: Q01DX005 (ip), vehicle: saline with Tween-80
[4] = dose: 50.0 mg/kg/injection, schedule: Q01DX009 (ip), vehicle: saline
[5] = dose: 100.0 mg/kg/injection, schedule: Q01DX009 (ip), vehicle: saline
[6] = dose: 200.0 mg/kg/injection, schedule: Q01DX009 (ip), vehicle: saline
[7] = dose: 50.0 mg/kg/injection, schedule: Q01DX009 (ip), vehicle: saline with Tween-80
[8] = dose: 100.0 mg/kg/injection, schedule: Q01DX009 (ip), vehicle: saline with Tween-80
[9] = dose: 200.0 mg/kg/injection, schedule: Q01DX009 (ip), vehicle: saline with Tween-80
[10] = dose: 12.5 mg/kg/injection, schedule: Q01DX009 (ip), vehicle: saline with Tween-80
[11] = dose: 25.0 mg/kg/injection, schedule: Q01DX009 (ip), vehicle: saline with Tween-80
[12] = dose: 50.0 mg/kg/injection, schedule: Q01DX009 (ip), vehicle: Klucel (hydroxypropylcellulose) (HPC)
[13] = dose: 100.0 mg/kg/injection, schedule: Q01DX009 (ip), vehicle: Klucel (hydroxypropylcellulose) (HPC)
[14] = dose: 200.0 mg/kg/injection, schedule: Q01DX009 (ip), vehicle: Klucel (hydroxypropylcellulose) (HPC)

Measured: T/C

CCOC(=O)c1ccc(N=NN2CN3CN(C2)CN(N=Nc2ccc(C(=O)OCC)cc2)C3)cc1
inactive: dose: 25.0 mg/kg/injection, schedule: Q04DX002 (ip), vehicle: Klucel (hydroxypropylcellulose) (HPC) 99 % of control | dose: 50.0 mg/kg/injection, schedule: Q04DX002 (ip), vehicle: Klucel (hydroxypropylcellulose) (HPC) 104 % of control | dose: 100.0 mg/kg/injection, schedule: Q04DX002 (ip), vehicle: Klucel (hydroxypropylcellulose) (HPC) 100 % of control and 87 % of control

N#Cc1c(C#N)c(O)c2c(N)cccc2c1O
inactive: dose: 100.0 mg/kg/injection, schedule: Q04DX002 (ip), vehicle: saline with Tween-80 105 % of control | dose: 200.0 mg/kg/injection, schedule: Q04DX002 (ip), vehicle: saline with Tween-80 108 % of control

c1ccc2c3c(ccc2c1)Oc1ccc2ccccc2c1C3CCC1c2c(ccc3ccccc23)Oc2ccc3ccccc3c21
inactive: [1] 96 % of control | [2] 95 % of control | [3] 86 % of control

O=C1OC(/C=C/c2ccccc2)=NC/1=C\c1ccccc1
inactive: dose: 60.0 mg/kg/injection, schedule: Q01DX005 (ip), vehicle: Klucel + Tween-80 103 % of control | dose: 120.0 mg/kg/injection, schedule: Q01DX005 (ip), vehicle: Klucel + Tween-80 99 % of control | dose: 240.0 mg/kg/injection, schedule: Q01DX005 (ip), vehicle: Klucel + Tween-80 97 % of control

C[C@]12CC(=O)O[C@@H](C[C@H]1OC(=O)c1ccccc1)[C@@]21CO1
inactive: dose: 1.0 mg/kg/injection, schedule: Q04DX002 (ip), vehicle: distilled water + Tween-80 102 % of control | dose: 2.0 mg/kg/injection, schedule: Q04DX002 (ip), vehicle: distilled water + Tween-80 103 % of control | dose: 4.0 mg/kg/injection, schedule: Q04DX002 (ip), vehicle: distilled water + Tween-80 100 % of control | dose: 8.0 mg/kg/injection, schedule: Q04DX002 (ip), vehicle: distilled water + Tween-80 94 % of control | dose: 16.0 mg/kg/injection, schedule: Q04DX002 (ip), vehicle: distilled water + Tween-80 100 % of control

CCOC(=O)C(=CCBr)C(=O)OCC
inactive: dose: 1.56 mg/kg/injection, schedule: Q01DX009 (ip), vehicle: other 105 % of control | dose: 3.13 mg/kg/injection, schedule: Q01DX009 (ip), vehicle: other 110 % of control | dose: 6.25 mg/kg/injection, schedule: Q01DX009 (ip), vehicle: other 118 % of control | dose: 12.5 mg/kg/injection, schedule: Q01DX009 (ip), vehicle: other 106 % of control | dose: 25.0 mg/kg/injection, schedule: Q01DX009 (ip), vehicle: other 102 % of control

N#Cc1cc(Br)ccc1N
inactive: [4] 105 % of control | [5] 107 % of control | [6] 96 % of control

CCn1c2ccccc2c2cc(N=Nc3cc4ccccc4[nH]3)ccc21
inactive: [7] 115 % of control | [8] 113 % of control | [9] 113 % of control

COC(=O)c1cc2c(s1)CCC/C(Cl)=C(/C=O)C2
inactive: dose: 6.25 mg/kg/injection, schedule: Q01DX009 (ip), vehicle: saline with Tween-80 96 % of control | dose: 6.25 mg/kg/injection, schedule: Q01DX009 (ip), vehicle: saline 97 % of control | [10] 104 % of control and 94 % of control | dose: 12.5 mg/kg/injection, schedule: Q01DX009 (ip), vehicle: saline 91 % of control | [11] 106 % of control and 95 % of control | dose: 25.0 mg/kg/injection, schedule: Q01DX009 (ip), vehicle: saline 97 % of control | [7] 100 % of control and 107 % of control | [4] 101 % of control and 120 % of control | [5] 103 % of control

Oc1c(-c2ccccc2)nc2cnccn12
inactive: [1] 100 % of control | [2] 107 % of control | [3] 107 % of control

COC(=O)NC1C(=O)OC2C1CC1OC12 (centres undefined)
inactive: [1] 101 % of control | [2] 100 % of control | [3] 101 % of control

C=CCCCCC1CC2CCCCN2O1 (centres undefined)
inactive: [12] 94 % of control | [13] 103 % of control | [14] 113 % of control

[N-]=[N+]=N[Si](c1ccccc1)(c1ccccc1)c1ccccc1
inactive: [12] 103 % of control | [13] 101 % of control | [14] 103 % of control

Oc1ccccc1C(Nc1nc2ccccc2s1)c1ccc2cccnc2c1O (centres undefined)
inactive: [5] 90 % of control | dose: 100.0 mg/kg/injection, schedule: Q04DX003 (ip), vehicle: saline 95 % of control | [6] 100 % of control | dose: 200.0 mg/kg/injection, schedule: Q04DX003 (ip), vehicle: saline 91 % of control | dose: 400.0 mg/kg/injection, schedule: Q01DX009 (ip), vehicle: saline 90 % of control | dose: 400.0 mg/kg/injection, schedule: Q04DX003 (ip), vehicle: saline 91 % of control

O=C(NC1CCCCC1)O/N=C/c1cccnc1
inactive: [7] 101 % of control | [8] 98 % of control | [9] 93 % of control

O=C1CC2(CCCC2)CC(=O)N1c1ccc(O)c(CN2CCCCC2)c1
inactive: [12] 105 % of control | [13] 100 % of control | [14] 102 % of control

Nc1ncc(Cl)c2ccccc12
inactive: dose: 6.25 mg/kg/injection, schedule: Q01DX005 (ip), vehicle: saline with Tween-80 99 % of control | dose: 12.5 mg/kg/injection, schedule: Q01DX005 (ip), vehicle: saline with Tween-80 97 % of control | dose: 25.0 mg/kg/injection, schedule: Q01DX005 (ip), vehicle: saline with Tween-80 89 % of control | dose: 50.0 mg/kg/injection, schedule: Q01DX005 (ip), vehicle: saline with Tween-80 101 % of control

Cn1c2nc3ccccc3c-2nc2ccccc21
inactive: dose: 1.56 mg/kg/injection, schedule: Q01DX009 (ip), vehicle: water 100 % of control | dose: 3.13 mg/kg/injection, schedule: Q01DX009 (ip), vehicle: water 92 % of control | dose: 6.25 mg/kg/injection, schedule: Q01DX009 (ip), vehicle: water 88 % of control | dose: 12.5 mg/kg/injection, schedule: Q01DX009 (ip), vehicle: Klucel (hydroxypropylcellulose) (HPC) 92 % of control | dose: 25.0 mg/kg/injection, schedule: Q01DX009 (ip), vehicle: Klucel (hydroxypropylcellulose) (HPC) 99 % of control | [12] 109 % of control | [13] 106 % of control | [14] 107 % of control

CC(=O)NCCc1ccc2c(c1)OCO2
inactive: dose: 25.0 mg/kg/injection, schedule: Q01DX001 (ip), vehicle: saline + alcohol 105 % of control | dose: 50.0 mg/kg/injection, schedule: Q01DX001 (ip), vehicle: saline + alcohol 99 % of control | dose: 100.0 mg/kg/injection, schedule: Q01DX001 (ip), vehicle: saline + alcohol 98 % of control

COc1cc(C)c(O)c(C/C=C(\C)CC(=O)[C@H]2[C@]3(C)CCC[C@]3(C)[C@@]23C[C@H](O)C(C)(C)O3)c1
inactive: dose: 8.75 mg/kg/injection, schedule: Q01DX005 (ip), vehicle: saline with Tween-80 95 % of control | dose: 17.5 mg/kg/injection, schedule: Q01DX005 (ip), vehicle: saline with Tween-80 92 % of control | dose: 35.0 mg/kg/injection, schedule: Q01DX005 (ip), vehicle: saline with Tween-80 96 % of control

COC(=O)CCCC1=NC2=CC=CC3=NC(C)=NC(=N1)N23
inactive: [10] 123 % of control | [11] 114 % of control | [7] 98 % of control | [8] 104 % of control

Nc1[nH]c(=S)[nH]c(=O)c1NS(=O)(=O)c1cccc([N+](=O)[O-])c1
inactive: dose: 30.0 mg/kg/injection, schedule: Q01DX005 (ip), vehicle: Klucel (hydroxypropylcellulose) (HPC) 103 % of control and 105 % of control | dose: 60.0 mg/kg/injection, schedule: Q01DX005 (ip), vehicle: Klucel (hydroxypropylcellulose) (HPC) 100 % of control and 97 % of control | dose: 120.0 mg/kg/injection, schedule: Q01DX005 (ip), vehicle: Klucel (hydroxypropylcellulose) (HPC) 98 % of control and 97 % of control | dose: 240.0 mg/kg/injection, schedule: Q01DX005 (ip), vehicle: Klucel (hydroxypropylcellulose) (HPC) 99 % of control and 106 % of control

CNCc1c(C)[nH]c2ccc(N(C)C)cc2c1=O
inactive: [1] 101 % of control | [2] 104 % of control

O=c1oc(-c2ccccc2O)ns1
inactive: [13] 98 % of control | [14] 102 % of control | dose: 400.0 mg/kg/injection, schedule: Q01DX009 (ip), vehicle: Klucel (hydroxypropylcellulose) (HPC) 97 % of control

CCn1cc(C(=O)O)c(=O)c2ccc(-c3cn[nH]c3C)nc21
inactive: dose: 50.0 mg/kg/injection, schedule: Q04DX003 (ip), vehicle: suspension in saline 106 % of control | dose: 100.0 mg/kg/injection, schedule: Q04DX003 (ip), vehicle: suspension in saline 107 % of control | dose: 200.0 mg/kg/injection, schedule: Q04DX003 (ip), vehicle: suspension in saline 106 % of control
